Measured values taken from ChEMBL document CHEMBL1201862, “PubChem BioAssay data set” (2004).
“And” between values parts separate entries of the source, which are not always exact repeats. Identical values can stand only once. The source made the active and inactive calls.

What was measured:
[1] = cytotoxicity toward NIH3T3 fibroblasts, dose response, counter-screen, cell-based, ATP luminescence, mouse fibroblasts (AID 2010); type: functional;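 note: cells exposed to compound for about 90 hours before reading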
[2] = Counterscreen for AddAB inhibitors: absorbance-based bacterial cell-based high throughput dose response assay for inhibitors of bacterial viability. [Related pubchem assays (depositor defined):AID435030, AID449728, AID449731, AID488942, AID488955, AID488956]; type: functional
[3] = NIH-3T3 fibroblast cytotoxicity, dose response, cytotoxicity control, cell-based, fluorescence, Alamar Blue, secondary assay (AID 2327); type: functional;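 note: NIH-3T3 mouse fibroblasts cultured with fluconazole at 8 µg/mL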
[4] = growth suppression of beta-catenin-knockout colon cells, dose response, cell-based, HCT116, human colon tumor (AID 1045); type: functional;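 note: HCT116 colon tumor cells with beta catenin knocked out; cells exposed to compound for 60 hours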
[5] = Luminescence Cell-Based Dose Confirmation HTS to Identify Inhibitors of Polyadenylation.; type: functional
[6] = tested on: INS1; experiment: beta cell apoptosis inhibitors, cytokine rescue, dose response, luminescence, retest (AID 449756); type: functional, cell-based; conditions: Rattus norvegicus;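 note: cell death triggered by IL-1 beta plus TNF-alpha plus IFN-gamma mixture; protective hits raise ATP signal compared with cytokine alone wells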
[7] = C. albicans growth with fluconazole, confirmation, fluorescence, retest (AID 2467); type: functional, cell-based
[8] = inhibitors of intracellular T. cruzi replication, confirmation, NIH3T3 host cells, beta-gal luminescence (AID 2044); type: functional, cell-based;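 note: intracellular parasites grown in NIH/3T3 mouse fibroblasts as host cells; luminescent beta-galactosidase reporter signal from transgenic T. cruzi replicating inside host cells; inhibitors lower the luminescence signal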
[9] = growth suppression of PTEN-null colon cells, dose response, cell-based, HCT116 PTEN knockout (AID 1047); type: functional;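 note: HCT116 colon tumor cells with PTEN knocked out; cells exposed to compound for 60 hours before readout; potency for loss of cell viability measured by luminescence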
[10] = molecular target: Epstein-Barr nuclear antigen 1 (Epstein-Barr virus (strain B95-8) (HHV-4) (Human herpesvirus 4), UniProt P03211); experiment: EBNA-1 inhibitors, dose response, biochemical, fluorescence polarization, 1536-well (AID 2381); parameters: species or system human gammaherpesvirus 4;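 note: fluorescence polarization of a Cy5 DNA probe bound by EBNA-1 protein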
[11] = molecular target: Lytic switch protein BZLF1 (Epstein-Barr virus (strain B95-8) (HHV-4) (Human herpesvirus 4), UniProt P03206); experiment: EBV ZTA inhibitors, dose response, counter-screen for EBNA-1 inhibitor project, biochemical, fluorescence polarization, Epstein-Barr virus, 1536-well (AID 2377); parameters: species or system human gammaherpesvirus 4;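 note: fluorescence polarization of Cy5-labelled ZRE DNA probe bound by purified Zta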
[12] = molecular target: T1, Calpain-2 catalytic subunit (Sus scrofa, UniProt P43367); experiment: pig calpain II inhibitor potency, dose response, biochemical, fluorogenic peptide substrate (AID 1420); type: functional
T1 sequence (P43367 whole entry): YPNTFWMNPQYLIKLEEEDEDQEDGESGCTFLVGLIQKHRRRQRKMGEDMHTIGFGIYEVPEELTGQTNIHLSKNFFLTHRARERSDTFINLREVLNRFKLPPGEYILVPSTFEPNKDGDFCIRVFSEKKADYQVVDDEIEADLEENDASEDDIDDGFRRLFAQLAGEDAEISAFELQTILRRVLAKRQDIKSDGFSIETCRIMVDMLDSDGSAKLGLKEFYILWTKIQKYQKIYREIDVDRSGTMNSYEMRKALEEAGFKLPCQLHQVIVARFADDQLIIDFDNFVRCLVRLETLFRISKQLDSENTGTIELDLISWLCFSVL

[13] = molecular target: Estrogen receptor (Homo sapiens, UniProt P03372);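 note: potency for inhibiting coactivator peptide recruitment to the receptor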
[14] = molecular target: T2, Protein RecA (Mycobacterium tuberculosis, UniProt P9WHJ3); experiment: Fluorescence Cell-Free Homogeneous Dose Retest to Identify Inhibitors of RecA-Intein Splicing Activity. [Related pubchem assays (depositor defined):AID2097, AID2223, AID489010, AID492950]; type: functional
T2 sequence (P9WHJ3 whole entry): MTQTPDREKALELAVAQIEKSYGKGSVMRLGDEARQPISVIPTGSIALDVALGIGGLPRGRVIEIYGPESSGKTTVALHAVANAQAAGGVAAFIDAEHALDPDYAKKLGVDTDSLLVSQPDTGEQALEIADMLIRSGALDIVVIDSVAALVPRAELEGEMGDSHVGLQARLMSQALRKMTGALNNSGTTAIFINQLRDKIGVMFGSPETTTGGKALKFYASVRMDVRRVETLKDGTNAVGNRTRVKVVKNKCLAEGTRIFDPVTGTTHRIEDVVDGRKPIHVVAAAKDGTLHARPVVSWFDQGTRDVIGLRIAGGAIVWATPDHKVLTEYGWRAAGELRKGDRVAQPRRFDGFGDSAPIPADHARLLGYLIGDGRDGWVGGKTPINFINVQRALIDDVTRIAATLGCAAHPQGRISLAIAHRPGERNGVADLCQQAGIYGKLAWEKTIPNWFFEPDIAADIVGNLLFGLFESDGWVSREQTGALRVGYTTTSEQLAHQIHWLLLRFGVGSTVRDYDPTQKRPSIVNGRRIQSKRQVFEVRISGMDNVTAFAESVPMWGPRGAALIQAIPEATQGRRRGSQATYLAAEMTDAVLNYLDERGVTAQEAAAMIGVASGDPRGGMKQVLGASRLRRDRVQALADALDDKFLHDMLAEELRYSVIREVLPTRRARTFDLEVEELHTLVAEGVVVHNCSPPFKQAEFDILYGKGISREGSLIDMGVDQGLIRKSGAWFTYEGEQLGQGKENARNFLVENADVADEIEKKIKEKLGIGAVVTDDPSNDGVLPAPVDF

[15] = Shn3 3'UTR reporter inhibitors, dose response, cell-based, Clone20 osteoblasts, firefly luciferase, cherry-picked (AID 624132); type: functional;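 note: firefly luciferase luminescence from reporter carrying the Shn3 3'UTR in osteoblasts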
[16] = tested on: CHO; experiment: cytotoxicity in TLR9-MyD88 CHO cells, dose response, cytotoxicity control for TLR9-MyD88 binding inhibitor project, cell-based, luminescence (AID 588339); type: functional, hamster; conditions: Cricetulus griseus;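 note: CHO cells stably coexpressing TLR9 and MyD88 fusions from primary screen; compound exposure lasted 48 hours before viability readout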
[17] = molecular target: Beta Lactamase (Pseudomonas aeruginosa, UniProt Q932Y6); experiment: beta-lactamase reporter inhibitor potency, dose response, artefact control for TLR9-MyD88 binding inhibitor project, BLA reporter cells, FRET fluorescence (AID 588341); type: cell-based;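 note: cell based assay in CHO-K1 cells stably expressing beta-lactamase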
[18] = control 3'UTR Renilla luciferase suppression, dose response, counter-screen for Shn3 inhibitor project, cell-based, Clone20-Shn3RL, cherry-picked (AID 624133); type: functional
[19] = molecular target: T3, Bcl-2-related protein A1 (Mus musculus, UniProt Q07440); experiment: Bfl-1 inhibitors blocking BH3 peptide binding, confirmation, biochemical, TR-FRET, mouse Bfl-1 (AID 621);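 note: TR-FRET binding of GST-Bfl-1 to FITC-labelled Bid peptide via terbium antibody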
T3 sequence (Q07440 whole entry): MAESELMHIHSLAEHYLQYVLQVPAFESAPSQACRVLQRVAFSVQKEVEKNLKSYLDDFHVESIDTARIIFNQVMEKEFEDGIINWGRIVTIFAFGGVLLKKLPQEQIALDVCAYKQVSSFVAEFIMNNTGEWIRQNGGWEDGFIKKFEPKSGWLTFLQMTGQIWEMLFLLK

[20] = cytotoxicity in HPDE-C7 cells, cell-based, fluorescence, HTS (AID 430); type: functional; conditions: Homo sapiens
[21] = molecular target: T4, Replicative DNA helicase DnaB (Mycobacterium tuberculosis, UniProt P9WMR3); experiment: DnaB intein splicing inhibitors, dose response, biochemical, cell-free fluorescence (AID 449749); type: functional
T4 sequence (P9WMR3 whole entry): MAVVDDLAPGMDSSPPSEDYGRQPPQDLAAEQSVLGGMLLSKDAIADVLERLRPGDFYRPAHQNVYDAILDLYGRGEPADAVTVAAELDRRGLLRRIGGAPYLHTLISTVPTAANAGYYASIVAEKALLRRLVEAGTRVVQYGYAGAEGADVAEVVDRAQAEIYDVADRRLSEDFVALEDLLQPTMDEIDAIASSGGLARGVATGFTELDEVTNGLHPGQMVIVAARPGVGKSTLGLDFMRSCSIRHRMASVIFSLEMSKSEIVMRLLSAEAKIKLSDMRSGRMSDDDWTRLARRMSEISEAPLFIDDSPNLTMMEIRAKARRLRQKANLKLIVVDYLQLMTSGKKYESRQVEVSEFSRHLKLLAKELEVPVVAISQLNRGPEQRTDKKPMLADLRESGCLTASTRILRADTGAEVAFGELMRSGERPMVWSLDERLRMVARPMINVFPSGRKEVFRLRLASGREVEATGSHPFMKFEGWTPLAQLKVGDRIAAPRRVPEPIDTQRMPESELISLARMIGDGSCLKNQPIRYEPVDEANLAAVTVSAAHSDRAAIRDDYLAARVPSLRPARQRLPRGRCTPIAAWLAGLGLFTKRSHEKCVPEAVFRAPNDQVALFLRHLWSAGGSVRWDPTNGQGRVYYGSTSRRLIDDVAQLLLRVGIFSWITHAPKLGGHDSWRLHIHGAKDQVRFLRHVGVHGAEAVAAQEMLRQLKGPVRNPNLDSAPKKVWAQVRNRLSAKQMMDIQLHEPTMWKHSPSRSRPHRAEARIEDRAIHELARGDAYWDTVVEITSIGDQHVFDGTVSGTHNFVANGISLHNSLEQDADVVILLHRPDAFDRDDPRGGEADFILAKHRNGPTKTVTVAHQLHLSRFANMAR

[22] = molecular target: T3, Bcl-2-related protein A1; experiment: Bfl-1 inhibitors, primary screen, biochemical, fluorescence polarization, FITC-Bid, mouse (AID 432)
[23] = HepG2 cell cytotoxicity, dose response, cytotoxicity control for Shn3 inhibitor project, CellTiter-Glo, cherry-picked (AID 624134); type: functional, cell-based
[24] = molecular target: T3, Bcl-2-related protein A1; experiment: Bfl-1 binding inhibitors, SAR follow-up, biochemical, fluorescence polarization (AID 1070)
[25] = cytotoxicity in KRAS-transformed pancreatic duct cells, primary screen, cell-based, fluorescence, HTS (AID 431); type: functional; conditions: Homo sapiens;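 note: cell line used: HPDE-C7K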
[26] = molecular target: Glyceraldehyde-3-phosphate dehydrogenase (Homo sapiens, UniProt P04406)
[27] = molecular target: Procathepsin L (Homo sapiens, UniProt P07711); experiment: cathepsin L inhibitors, dose response, counter-screen for M1/M17 aminopeptidase inhibitor project, biochemical, QFRET, 1536-well (AID 2214)
[28] = molecular target: Aspartyl aminopeptidase (Plasmodium falciparum 3D7, UniProt Q8I2J3); experiment: Counterscreen for inhibitors of M1 and M17 aminopeptidases: QFRET-based biochemical high throughput dose response assay for inhibitors of the Plasmodium falciparum M18 Aspartyl Aminopeptidase (PFM18AAP). [Related PubChem assays: 1619 (Screening assay (M17LAP inhibitors).), 1445 (Screening assay (M1AAP inhibitors).)]
[29] = molecular target: T5, Leucine aminopeptidase (Plasmodium falciparum 3D7, UniProt Q8IL11); experiment: P. falciparum M17LAP inhibitors, primary screen, biochemical, fluorogenic H-Leu-NHMec substrate, 1536-well (AID 1619); type: functional
T5 sequence (Q8IL11 whole entry): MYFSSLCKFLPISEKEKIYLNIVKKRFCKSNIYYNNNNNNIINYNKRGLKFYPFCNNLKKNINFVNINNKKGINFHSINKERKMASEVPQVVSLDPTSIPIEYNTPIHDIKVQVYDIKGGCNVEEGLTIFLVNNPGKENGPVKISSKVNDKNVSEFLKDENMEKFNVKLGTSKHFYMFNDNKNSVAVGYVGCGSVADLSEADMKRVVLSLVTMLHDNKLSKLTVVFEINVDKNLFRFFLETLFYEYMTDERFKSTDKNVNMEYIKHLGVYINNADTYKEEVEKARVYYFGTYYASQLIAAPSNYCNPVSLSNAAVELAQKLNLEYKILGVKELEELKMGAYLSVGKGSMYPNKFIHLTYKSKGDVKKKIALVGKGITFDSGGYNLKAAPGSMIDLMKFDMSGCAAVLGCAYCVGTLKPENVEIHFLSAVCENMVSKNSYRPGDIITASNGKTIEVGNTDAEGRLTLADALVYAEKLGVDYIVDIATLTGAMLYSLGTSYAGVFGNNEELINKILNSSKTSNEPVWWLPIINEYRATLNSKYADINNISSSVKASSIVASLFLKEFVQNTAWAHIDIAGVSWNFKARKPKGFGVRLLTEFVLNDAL

[30] = molecular target: T6, Heat shock factor protein 1 (Mus musculus, UniProt P38532); experiment: HSF1 potentiators in luciferase reporter cells, confirmation, cell-based, NIH3T3, luminescence, dose retest (AID 435004); type: functional;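 note: stress induced by proteasome inhibitor MG132 added 30 min after compound; luciferase reporter driven by HSF1 response element in NIH3T3 cells; actives raise luminescence as potentiators of the MG132 stress response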
T6 sequence (P38532 whole entry): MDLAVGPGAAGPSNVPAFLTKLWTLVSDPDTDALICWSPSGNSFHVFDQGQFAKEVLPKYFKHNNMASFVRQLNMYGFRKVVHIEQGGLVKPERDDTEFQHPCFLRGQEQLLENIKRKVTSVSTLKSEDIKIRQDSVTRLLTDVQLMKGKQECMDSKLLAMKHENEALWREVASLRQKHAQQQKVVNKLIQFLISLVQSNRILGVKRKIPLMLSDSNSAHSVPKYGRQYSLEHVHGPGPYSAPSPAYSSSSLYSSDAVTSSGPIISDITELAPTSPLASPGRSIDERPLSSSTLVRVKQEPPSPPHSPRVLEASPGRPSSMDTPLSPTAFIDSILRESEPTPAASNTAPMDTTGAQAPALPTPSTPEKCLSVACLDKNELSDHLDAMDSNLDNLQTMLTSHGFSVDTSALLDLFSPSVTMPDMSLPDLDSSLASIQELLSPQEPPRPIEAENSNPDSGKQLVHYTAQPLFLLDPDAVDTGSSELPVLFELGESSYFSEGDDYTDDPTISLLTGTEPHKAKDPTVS

[31] = molecular target: NADPH oxidase 1 (Homo sapiens, UniProt Q9Y5S8); type: functional, cell-based;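 note: Cell-based assay with luminescence read-out, IC50 derived from inhibitor dose-response curves; intracellular ROS from endogenous NOX1 in intact HT29 colon cancer cells; potency of inhibitors that lower the ROS luminescence signal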
NADPH oxidase 1, sequence (Q9Y5S8 whole entry): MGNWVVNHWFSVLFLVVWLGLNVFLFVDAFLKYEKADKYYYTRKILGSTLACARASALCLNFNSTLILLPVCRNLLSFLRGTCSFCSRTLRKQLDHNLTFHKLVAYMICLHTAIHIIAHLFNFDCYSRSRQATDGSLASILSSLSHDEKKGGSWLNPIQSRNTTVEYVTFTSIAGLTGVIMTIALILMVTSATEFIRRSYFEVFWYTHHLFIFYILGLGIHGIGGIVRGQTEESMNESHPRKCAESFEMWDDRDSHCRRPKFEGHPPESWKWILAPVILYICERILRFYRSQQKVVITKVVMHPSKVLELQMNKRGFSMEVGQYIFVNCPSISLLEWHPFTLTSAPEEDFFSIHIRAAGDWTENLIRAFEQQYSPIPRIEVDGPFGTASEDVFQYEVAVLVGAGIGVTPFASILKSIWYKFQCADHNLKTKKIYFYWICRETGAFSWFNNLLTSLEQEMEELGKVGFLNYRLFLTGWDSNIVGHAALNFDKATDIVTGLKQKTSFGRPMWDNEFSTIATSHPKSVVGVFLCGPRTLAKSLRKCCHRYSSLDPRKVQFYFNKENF

Glyceraldehyde-3-phosphate dehydrogenase, sequence (P04406 whole entry): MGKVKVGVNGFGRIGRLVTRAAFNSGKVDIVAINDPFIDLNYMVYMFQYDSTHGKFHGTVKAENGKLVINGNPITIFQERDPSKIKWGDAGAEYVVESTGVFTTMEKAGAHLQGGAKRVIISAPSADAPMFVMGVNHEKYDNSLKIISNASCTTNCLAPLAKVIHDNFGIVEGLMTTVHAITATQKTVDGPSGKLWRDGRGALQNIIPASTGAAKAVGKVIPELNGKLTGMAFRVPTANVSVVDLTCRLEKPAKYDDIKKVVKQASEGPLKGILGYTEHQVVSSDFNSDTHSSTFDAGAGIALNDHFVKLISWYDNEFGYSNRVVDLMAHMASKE
Procathepsin L, sequence (P07711 whole entry): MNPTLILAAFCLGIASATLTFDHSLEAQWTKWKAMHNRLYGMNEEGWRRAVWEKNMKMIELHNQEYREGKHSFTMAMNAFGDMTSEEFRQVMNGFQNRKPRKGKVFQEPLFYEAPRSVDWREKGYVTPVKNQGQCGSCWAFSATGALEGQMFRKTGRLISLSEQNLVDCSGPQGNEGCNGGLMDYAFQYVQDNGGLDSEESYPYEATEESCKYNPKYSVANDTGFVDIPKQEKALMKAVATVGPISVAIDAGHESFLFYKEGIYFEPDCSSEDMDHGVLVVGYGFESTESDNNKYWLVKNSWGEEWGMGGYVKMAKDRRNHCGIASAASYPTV
Epstein-Barr nuclear antigen 1, sequence (P03211 whole entry): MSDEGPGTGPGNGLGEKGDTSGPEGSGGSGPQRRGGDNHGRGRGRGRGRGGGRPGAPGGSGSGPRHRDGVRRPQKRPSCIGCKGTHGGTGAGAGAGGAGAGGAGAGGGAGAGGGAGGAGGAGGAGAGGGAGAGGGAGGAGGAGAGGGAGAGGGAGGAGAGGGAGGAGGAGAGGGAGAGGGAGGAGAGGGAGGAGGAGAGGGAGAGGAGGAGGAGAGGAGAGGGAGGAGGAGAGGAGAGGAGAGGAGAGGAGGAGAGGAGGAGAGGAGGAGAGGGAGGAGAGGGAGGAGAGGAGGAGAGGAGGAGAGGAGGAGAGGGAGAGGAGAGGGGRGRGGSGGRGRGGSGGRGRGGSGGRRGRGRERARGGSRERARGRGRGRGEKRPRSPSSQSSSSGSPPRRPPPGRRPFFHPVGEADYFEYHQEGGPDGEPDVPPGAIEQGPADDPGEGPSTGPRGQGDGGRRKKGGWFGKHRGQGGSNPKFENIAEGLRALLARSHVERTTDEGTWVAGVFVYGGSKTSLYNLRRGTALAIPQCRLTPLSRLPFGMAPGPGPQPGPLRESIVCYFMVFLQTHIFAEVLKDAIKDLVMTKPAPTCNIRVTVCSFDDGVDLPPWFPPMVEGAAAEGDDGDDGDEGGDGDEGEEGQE
Beta Lactamase, sequence (Q932Y6 whole entry): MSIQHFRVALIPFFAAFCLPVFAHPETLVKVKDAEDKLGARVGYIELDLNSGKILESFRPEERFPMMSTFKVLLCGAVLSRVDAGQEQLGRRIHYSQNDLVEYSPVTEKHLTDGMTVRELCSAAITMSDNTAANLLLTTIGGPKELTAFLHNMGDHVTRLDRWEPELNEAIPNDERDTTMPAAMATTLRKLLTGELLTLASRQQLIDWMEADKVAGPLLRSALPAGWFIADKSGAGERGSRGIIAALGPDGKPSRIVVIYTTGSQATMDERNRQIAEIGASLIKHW
Estrogen receptor, sequence (P03372 whole entry): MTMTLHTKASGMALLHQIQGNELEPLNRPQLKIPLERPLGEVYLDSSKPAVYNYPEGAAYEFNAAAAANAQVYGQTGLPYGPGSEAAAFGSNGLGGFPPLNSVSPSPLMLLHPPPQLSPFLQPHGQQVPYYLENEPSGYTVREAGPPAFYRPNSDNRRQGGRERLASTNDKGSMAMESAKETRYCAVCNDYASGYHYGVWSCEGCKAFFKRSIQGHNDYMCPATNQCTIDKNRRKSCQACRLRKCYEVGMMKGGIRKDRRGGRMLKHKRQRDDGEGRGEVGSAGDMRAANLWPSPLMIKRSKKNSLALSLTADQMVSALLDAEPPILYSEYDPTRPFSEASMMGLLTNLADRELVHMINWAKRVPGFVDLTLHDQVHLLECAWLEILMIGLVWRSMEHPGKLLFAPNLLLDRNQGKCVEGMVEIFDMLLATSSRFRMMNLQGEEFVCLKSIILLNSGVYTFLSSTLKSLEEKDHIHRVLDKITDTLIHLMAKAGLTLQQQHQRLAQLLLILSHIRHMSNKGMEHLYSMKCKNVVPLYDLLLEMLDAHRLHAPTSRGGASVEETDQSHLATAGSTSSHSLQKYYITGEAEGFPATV
Lytic switch protein BZLF1, sequence (P03206 whole entry): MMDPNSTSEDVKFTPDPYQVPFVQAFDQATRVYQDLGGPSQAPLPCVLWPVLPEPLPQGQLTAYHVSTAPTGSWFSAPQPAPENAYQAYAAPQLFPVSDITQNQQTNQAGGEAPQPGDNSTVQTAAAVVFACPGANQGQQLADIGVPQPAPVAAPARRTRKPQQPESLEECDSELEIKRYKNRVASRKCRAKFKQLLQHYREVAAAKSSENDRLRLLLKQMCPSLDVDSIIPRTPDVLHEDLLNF
Aspartyl aminopeptidase, sequence (Q8I2J3 whole entry): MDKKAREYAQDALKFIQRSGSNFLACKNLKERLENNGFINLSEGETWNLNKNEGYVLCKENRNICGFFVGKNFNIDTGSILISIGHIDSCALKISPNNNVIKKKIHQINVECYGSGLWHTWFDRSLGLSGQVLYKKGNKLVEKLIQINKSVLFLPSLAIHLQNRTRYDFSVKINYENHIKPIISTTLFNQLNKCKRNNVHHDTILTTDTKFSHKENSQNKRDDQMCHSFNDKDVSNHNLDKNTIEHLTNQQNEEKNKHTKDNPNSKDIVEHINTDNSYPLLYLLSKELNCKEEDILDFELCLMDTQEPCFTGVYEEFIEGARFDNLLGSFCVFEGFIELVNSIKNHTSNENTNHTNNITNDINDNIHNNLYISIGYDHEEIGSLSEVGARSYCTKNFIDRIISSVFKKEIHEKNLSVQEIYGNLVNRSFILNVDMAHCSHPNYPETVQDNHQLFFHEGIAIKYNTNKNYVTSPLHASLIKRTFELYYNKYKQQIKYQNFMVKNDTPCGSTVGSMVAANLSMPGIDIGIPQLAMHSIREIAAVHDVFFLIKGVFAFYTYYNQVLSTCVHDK

Cc1ccc2[nH]c(/C(C#N)=C\c3ccc([N+](=O)[O-])o3)nc2c1
EC50 [1]: > 60 µM (not active)
IC50 [2]: > 119 µM (inactive)
EC50 [3]: 3.01 µM (inconclusive)
EC50 [4]: 1.04 µM (active)
EC50 [5]: 5.85 µM (active)
AC50 [6]: 1.92 µM (active)
EC50 [7]: 0.387 µM (active)
EC50 [8]: 0.604 µM (active)
EC50 [9]: 1.02 µM (active)

CCOc1ccc(C(=O)NC(=S)Nc2ccc(NC(=O)C(C)C)cc2)cc1[N+](=O)[O-]
IC50 [10]: 1.89 µM (active)
IC50 [11]: > 111 µM (not active)

Cc1nnc(Oc2ccccc2F)c2ccccc12
IC50 [12]: > 50 µM (not active)
IC50 [13]: 30 µM (active)

CCOC(=O)CS(=O)(=O)c1nc(-c2ccc(F)cc2)cc(C(F)(F)F)n1
EC50 [14]: 3.3 µM (active)
AC50 [15]: 1.78 µM (active)
IC50 [16]: 2.88 µM (active)
IC50 [17]: 14.4 µM (inactive)
AC50 [18]: 6.97 µM (active)
IC50 [19]: 3.41 µM (active) and 1.46 µM (active)
EC50 [20]: 9.29 µM (active)
AC50 [21]: 3.35 µM (active)
IC50 [22]: 3.78 µM (active)
AC50 [23]: 20.9 µM (active)
IC50 [24]: 2.16 µM (active)
EC50 [25]: 6.05 µM (active)
IC50 [26]: > 100 µM (not active)

Oc1cc(-c2ccc(Cl)c(Cl)c2)[nH]n1
IC50 [27]: > 59.6 µM (not active)
EC50 [14]: 0.852 µM (active)
IC50 [28]: > 73.5 µM (not active)
AC50 [21]: 2.01 µM (active)
IC50 [29]: < 1 µM (active)
EC50 [30]: > 260 µM (inactive)

COc1ccc2c(Cl)c(C(=O)Oc3ccccc3[N+](=O)[O-])sc2c1
IC50 [31]: > 17 µM (not active)
